Laboratory results taken from US10457655B2, “Compounds and compositions for inhibition of FASN” (FORMA Therapeutics, Inc., priority 2013, dated 2019).
pIC50: −log10 of the molar value. Like-named read-outs stand apart in the source and are kept apart here.

Columns and labels:
[1] = biological target: FASN enzyme (Homo sapiens, UniProt P49327); experiment: Enzymatic Assay for FASN Inhibitors; format: biochemical
Procedure, shortened: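 40 nM FASN preincubated with compound 60 min at 25° C in HEPES pH 7.3 buffer with 0.04% Triton X-100. Then 20 μM acetyl-CoA, 60 μM malonyl-CoA and 100 μM NADPH added for 90 min, quenched with CPM thiol probe; fluorescence 360/530 nm, IC50 by four-parameter fit.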

[2] = tested on: PC3 cells; experiment: Cell Proliferation Assays for FASN Inhibitors (PC3 cells, MTT); format: cell-based; conditions: Homo sapiens, PC-3, 96 h
Experimental: The effects of the FASN inhibitors on cultured cancer cell proliferation were studies with cell proliferation assays. PC3 cells were maintained at standard culture media (F12K media supplemented with 10% fetal bovine serum, 1×MEM nonessential amino acid and 1× penicillin/streptomycin). 2000-3000 cells/100 μL/well was seeded in a 96-well clear culture plate. The cells were incubated overnight in 5% CO2 at 37° C. for attachment. Cell media were removed and replaced with F12K media containing 10% lipid reduced serum and compound. The final DMSO concentration is 0.1%. The cells were maintained in 5% CO2 at 37° C. for 4 days. The viability of cells was determined by MTT assays. The IC50 of a given compound was calculated by fitting the dose response curve with a four parameter logistic equation.

[3] = read-out: IC50 (uM) < 0.5, 10% lipid reduced serum, 4 days, Table 3-1
[4] = read-out: IC50 (uM) ≥ 0.5, 10% lipid reduced serum, 4 days, Table 3-2

Sequence of FASN enzyme (P49327 whole entry): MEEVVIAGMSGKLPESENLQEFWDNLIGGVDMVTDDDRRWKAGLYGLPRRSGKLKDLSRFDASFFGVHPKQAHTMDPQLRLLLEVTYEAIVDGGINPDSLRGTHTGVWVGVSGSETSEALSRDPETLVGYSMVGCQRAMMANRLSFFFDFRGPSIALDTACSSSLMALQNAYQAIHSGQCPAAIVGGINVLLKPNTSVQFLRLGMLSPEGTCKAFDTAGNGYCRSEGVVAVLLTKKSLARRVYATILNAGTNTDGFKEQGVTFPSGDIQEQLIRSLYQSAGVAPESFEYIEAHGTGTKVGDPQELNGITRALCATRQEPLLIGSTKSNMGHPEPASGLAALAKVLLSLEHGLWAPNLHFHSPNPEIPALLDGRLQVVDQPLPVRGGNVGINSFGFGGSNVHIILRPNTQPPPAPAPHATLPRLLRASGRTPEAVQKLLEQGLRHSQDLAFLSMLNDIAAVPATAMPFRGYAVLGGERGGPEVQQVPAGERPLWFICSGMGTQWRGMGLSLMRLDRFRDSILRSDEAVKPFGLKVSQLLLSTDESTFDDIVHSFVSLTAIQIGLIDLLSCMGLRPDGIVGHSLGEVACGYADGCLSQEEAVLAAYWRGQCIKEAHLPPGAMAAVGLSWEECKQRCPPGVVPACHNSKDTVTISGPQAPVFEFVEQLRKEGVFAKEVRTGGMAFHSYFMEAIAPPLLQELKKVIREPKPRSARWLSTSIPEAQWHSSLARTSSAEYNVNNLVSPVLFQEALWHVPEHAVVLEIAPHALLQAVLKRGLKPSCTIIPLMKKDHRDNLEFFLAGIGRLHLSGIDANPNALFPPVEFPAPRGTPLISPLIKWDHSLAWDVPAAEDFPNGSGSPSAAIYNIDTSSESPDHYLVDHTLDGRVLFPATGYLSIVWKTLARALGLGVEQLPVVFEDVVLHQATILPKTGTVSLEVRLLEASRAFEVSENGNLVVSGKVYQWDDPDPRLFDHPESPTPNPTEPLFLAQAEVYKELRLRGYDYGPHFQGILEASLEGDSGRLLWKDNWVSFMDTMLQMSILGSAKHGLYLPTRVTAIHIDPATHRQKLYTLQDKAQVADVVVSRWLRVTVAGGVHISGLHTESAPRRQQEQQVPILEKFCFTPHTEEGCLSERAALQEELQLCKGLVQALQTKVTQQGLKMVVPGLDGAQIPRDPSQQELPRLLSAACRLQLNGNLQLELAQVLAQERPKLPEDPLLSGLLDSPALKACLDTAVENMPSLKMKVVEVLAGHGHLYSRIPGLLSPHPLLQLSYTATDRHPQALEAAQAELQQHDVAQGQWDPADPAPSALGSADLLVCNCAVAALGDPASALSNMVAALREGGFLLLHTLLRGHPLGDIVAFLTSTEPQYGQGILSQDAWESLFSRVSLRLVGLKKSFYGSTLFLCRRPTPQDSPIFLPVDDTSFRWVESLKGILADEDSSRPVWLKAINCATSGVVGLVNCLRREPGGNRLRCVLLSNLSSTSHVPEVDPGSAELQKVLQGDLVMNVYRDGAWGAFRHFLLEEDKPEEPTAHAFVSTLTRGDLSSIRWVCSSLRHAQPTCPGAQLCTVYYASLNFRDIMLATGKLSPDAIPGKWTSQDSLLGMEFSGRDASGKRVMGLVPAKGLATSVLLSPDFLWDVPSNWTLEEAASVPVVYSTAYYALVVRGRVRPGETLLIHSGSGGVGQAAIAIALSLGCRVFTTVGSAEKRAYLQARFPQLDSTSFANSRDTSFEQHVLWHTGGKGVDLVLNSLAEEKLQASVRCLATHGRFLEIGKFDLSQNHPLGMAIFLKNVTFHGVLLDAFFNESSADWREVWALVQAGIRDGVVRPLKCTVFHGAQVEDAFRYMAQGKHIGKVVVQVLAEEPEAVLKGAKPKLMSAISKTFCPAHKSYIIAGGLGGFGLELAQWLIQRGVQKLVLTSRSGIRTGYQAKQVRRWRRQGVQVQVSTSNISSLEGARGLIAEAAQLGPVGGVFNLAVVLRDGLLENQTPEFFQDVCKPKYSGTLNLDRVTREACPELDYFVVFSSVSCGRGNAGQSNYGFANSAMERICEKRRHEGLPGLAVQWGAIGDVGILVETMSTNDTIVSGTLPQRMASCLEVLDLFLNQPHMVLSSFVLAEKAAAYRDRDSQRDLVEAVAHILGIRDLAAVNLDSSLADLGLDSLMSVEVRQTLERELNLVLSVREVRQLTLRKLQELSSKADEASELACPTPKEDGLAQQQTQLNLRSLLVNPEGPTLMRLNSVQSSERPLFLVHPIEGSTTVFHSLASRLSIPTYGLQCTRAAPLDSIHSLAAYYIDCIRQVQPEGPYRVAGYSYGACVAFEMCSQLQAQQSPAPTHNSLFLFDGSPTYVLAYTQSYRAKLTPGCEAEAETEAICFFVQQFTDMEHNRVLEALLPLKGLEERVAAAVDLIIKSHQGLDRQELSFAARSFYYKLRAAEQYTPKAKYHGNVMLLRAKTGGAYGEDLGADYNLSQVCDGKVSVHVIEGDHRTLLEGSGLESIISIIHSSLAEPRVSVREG

SMILES	pIC50 [1]	IC50 [2, 3] [µM]	IC50 [2, 4] [µM]	pIC50 ([1]; FASN enzymatic assay, Table 2-2)
O=C(c1ccc(-c2nc3cc(Cl)ccc3o2)cc1)N1CCN(C(=O)C2(O)CC2)CC1 [1-[(4-{[4-(5-chloro-1,3-benzoxazol-2-yl)phenyl]carbonyl}piperazin-1-yl)carbonyl]cyclopropan-1-ol]	> 6.30	< 0.5		
O=C(c1ccc(-c2cc(Cl)ccc2F)cc1)N1CCN(C(=O)C2(O)CC2)CC1 [1-[(4-{[4-(5-chloro-2-fluorophenyl)phenyl]carbonyl}piperazin-1-yl)carbonyl]cyclopropan-1-ol]	> 6.30	< 0.5		
O=C(c1ccc(-c2nc3cc(F)ccc3o2)cc1)N1CCN(C(=O)C2(O)CC2)CC1 [1-[(4-{[4-(5-fluoro-1,3-benzoxazol-2-yl)phenyl]carbonyl}piperazin-1-yl)carbonyl]cyclopropan-1-ol]	> 6.30	< 0.5		
O=C(c1ccc(-c2nc3ccc(Cl)cc3o2)cc1)N1CCN(C(=O)C2(O)CC2)CC1 [1-[(4-{[4-(6-chloro-1,3-benzoxazol-2-yl)phenyl]carbonyl}piperazin-1-yl)carbonyl]cyclopropan-1-ol]	> 6.30	< 0.5		
O=C(c1ccc(-c2nc3ccc(F)cc3o2)cc1)N1CCN(C(=O)C2(O)CC2)CC1 [1-[(4-{[4-(6-fluoro-1,3-benzoxazol-2-yl)phenyl]carbonyl}piperazin-1-yl)carbonyl]cyclopropan-1-ol]	> 6.30	< 0.5		
COc1ccc2nc(-c3ccc(C(=O)N4CCN(C(=O)C5(O)CC5)CC4)cc3)cc(C)c2c1 [1-[(4-{[4-(6-methoxy-4-methylquinolin-2-yl)phenyl]carbonyl}piperazin-1-yl)carbonyl]cyclopropan-1-ol]	> 6.30	< 0.5		
COc1ccc2cc(-c3ccc(C(=O)N4CCN(C(=O)C5(O)CC5)CC4)cc3)ccc2c1 [1-[(4-{[4-(6-methoxynaphthalen-2-yl)phenyl]carbonyl}piperazin-1-yl)carbonyl]cyclopropan-1-ol]	> 6.30	< 0.5		
COc1ccc2nc(-c3ccc(C(=O)N4CCN(C(=O)C5(O)CC5)CC4)cc3)ccc2c1 [1-[(4-{[4-(6-methoxyquinolin-2-yl)phenyl]carbonyl}piperazin-1-yl)carbonyl]cyclopropan-1-ol]	> 6.30	< 0.5		
O=C(c1ccc(-c2nccc3ccccc23)cc1)N1CCN(C(=O)C2(O)CC2)CC1 [1-[(4-{[4-(isoquinolin-1-yl)phenyl]carbonyl}piperazin-1-yl)carbonyl]cyclopropan-1-ol]	> 6.30	< 0.5		
O=C(c1ccc(-c2ccc3cnccc3c2)cc1)N1CCN(C(=O)C2(O)CCC2)CC1 [1-[(4-{[4-(isoquinolin-6-yl)phenyl]carbonyl}piperazin-1-yl)carbonyl]cyclobutan-1-ol]	> 6.30	< 0.5		
O=C(c1ccc(-c2ccc3cnccc3c2)cc1)N1CCN(C(=O)C2(O)CC2)CC1 [1-[(4-{[4-(isoquinolin-6-yl)phenyl]carbonyl}piperazin-1-yl)carbonyl]cyclopropan-1-ol]	> 6.30	< 0.5		
O=C(c1ccc(-c2ccc3ccccc3n2)cc1)N1CCN(C(=O)C2(O)CC2)CC1 [1-[(4-{[4-(quinolin-2-yl)phenyl]carbonyl}piperazin-1-yl)carbonyl]cyclopropan-1-ol]	> 6.30	< 0.5		
O=C(c1ccc(-c2cnc3ccccc3c2)cc1)N1CCN(C(=O)C2(O)CCC2)CC1 [1-[(4-{[4-(quinolin-3-yl)phenyl]carbonyl}piperazin-1-yl)carbonyl]cyclobutan-1-ol]	> 6.30	< 0.5		
O=C(c1ccc(-c2cccc3ncccc23)cc1)N1CCN(C(=O)C2(O)CC2)CC1 [1-[(4-{[4-(quinolin-5-yl)phenyl]carbonyl}piperazin-1-yl)carbonyl]cyclopropan-1-ol]	> 6.30	< 0.5		
Cn1ccc2cc(-c3ccc(C(=O)N4CCN(C(=O)C5(O)CC5)CC4)nc3)ccc21 [1-[(4-{[5-(1-methyl-1H-indol-5-yl)pyridin-2-yl]carbonyl}piperazin-1-yl)carbonyl]cyclopropan-1-ol]	> 6.30	< 0.5		
CC(C)n1ccc2cc(-c3ccc(C(=O)N4CCN(C(=O)C5(O)CC5)CC4)cc3Cl)ccc21 [1-{[4-({3-chloro-4-[1-(propan-2-yl)-1H-indol-5-yl]phenyl}carbonyl)piperazin-1-yl]carbonyl}cyclopropan-1-ol]	> 6.30		≥ 0.5	
O=C(c1ccc(-c2ccc3c(ccn3C(F)(F)F)c2)c(Cl)c1)N1CCN(C(=O)C2(O)CC2)CC1 [1-{[4-({3-chloro-4-[1-(trifluoromethyl)-1H-indol-5-yl]phenyl}carbonyl)piperazin-1-yl]carbonyl}cyclopropan-1-ol]	> 6.30	< 0.5		
O=C(c1ccc(-c2ccc3c(ccn3C(F)(F)F)c2)cc1)N1CCN(C(=O)C2(O)CC2)CC1 [1-{[4-({4-[1-(trifluoromethyl)-1H-indol-5-yl]phenyl}carbonyl)piperazin-1-yl]carbonyl}cyclopropan-1-ol]		< 0.5		5.30 to 6.30
N#Cc1ccc2nc(-c3ccc(C(=O)N4CCN(C(=O)C5(O)CC5)CC4)cc3)oc2c1 [2-[4-({4-[(1-hydroxycyclopropyl)carbonyl]piperazin-1-yl}carbonyl)phenyl]-1,3-benzoxazole-6-carbonitrile]	> 6.30	< 0.5		
O=C(c1ccc(-c2cc3ccccc3nc2O)cc1F)N1CCN(C(=O)C2(O)CC2)CC1 [3-[3-fluoro-4-({4-[(1-hydroxycyclopropyl)carbonyl]piperazin-1-yl}carbonyl)phenyl]quinolin-2-ol]	> 6.30	< 0.5		
O=C(c1ccc(-c2cc3ccccc3[nH]c2=O)cc1)N1CCN(C(=O)C2(O)CC2)CC1 [3-[4-({4-[(1-hydroxycyclopropyl)carbonyl]piperazin-1-yl}carbonyl)phenyl]-1,2-dihydroquinolin-2-one]	> 6.30	< 0.5		
O=C(c1ccc(-c2cnc3ccccc3c2)cc1)N1CCN(C(=O)C2CCO2)CC1 (stereo not shown) [3-[4-({4-[(oxetan-2-yl)carbonyl]piperazin-1-yl}carbonyl)phenyl]quinoline]	> 6.30		≥ 0.5	
N#Cc1cc2cc(-c3ccc(C(=O)N4CCN(C(=O)C5(O)CC5)CC4)cc3)ccc2[nH]1 [5-[4-({4-[(1-hydroxycyclopropyl)carbonyl]piperazin-1-yl}carbonyl)phenyl]-1H-indole-2-carbonitrile]	> 6.30	< 0.5		
N#Cc1c[nH]c2ccc(-c3ccc(C(=O)N4CCN(C(=O)C5(O)CC5)CC4)cc3)cc12 [5-[4-({4-[(1-hydroxycyclopropyl)carbonyl]piperazin-1-yl}carbonyl)phenyl]-1H-indole-3-carbonitrile]	> 6.30	< 0.5		
O=C(c1ccc(-c2ccc3[nH]ccc3c2)cc1)N1CCN(C(=O)C2CCO2)CC1 (stereo not shown) [5-[4-({4-[(oxetan-2-yl)carbonyl]piperazin-1-yl}carbonyl)phenyl]-1H-indole]	> 6.30		≥ 0.5	
O=C(c1ccc(-c2ccc3cnccc3c2)cc1)N1CCN(C(=O)C2CCO2)CC1 (stereo not shown) [6-[4-({4-[(oxetan-2-yl)carbonyl]piperazin-1-yl}carbonyl)phenyl]isoquinoline]	> 6.30	< 0.5		
O=C(c1ccc(-c2cccc(NS(=O)(=O)c3ccccc3)c2)cc1)N1CCN(C(=O)C2(O)CC2)CC1 [N-{3-[4-({4-[(1-hydroxycyclopropyl)carbonyl]piperazin-1-yl}carbonyl)phenyl]phenyl}benzenesulfonamide]	> 6.30	< 0.5		
O=C(c1ccc(-c2cccc(NS(=O)(=O)C3CC3)c2)cc1)N1CCN(C(=O)C2(O)CC2)CC1 [N-{3-[4-({4-[(1-hydroxycyclopropyl)carbonyl]piperazin-1-yl}carbonyl)phenyl]phenyl}cyclopropanesulfonamide]	> 6.30	< 0.5		
CS(=O)(=O)Nc1cccc(-c2ccc(C(=O)N3CCN(C(=O)C4(O)CC4)CC3)cc2)c1 [N-{3-[4-({4-[(1-hydroxycyclopropyl)carbonyl]piperazin-1-yl}carbonyl)phenyl]phenyl}methanesulfonamide]	> 6.30	< 0.5		
